Assay results: patent publication US7205305B2, “Inhibitors of p38” (Vertex Pharmaceuticals Incorporated, priority 1996, dated 2007)

What was measured:
activated p38 = activated p38 (Homo sapiens, UniProt Q16539); assay: Inhibition of phosphorylation of EGF receptor peptide ("kinase"); type: biochemical; details: inhibition of phosphorylation of EGF receptor peptide by activated p38
Outline: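 Activated p38 was preincubated with inhibitor for 15 min at room temperature in 100 mM HEPES pH 7.6, 10 mM MgCl2, 25 mM β-glycerophosphate, 10% glycerol, 5% DMSO final. Reaction used 200 μM EGF receptor peptide and 100 μM ATP for 30 min at 30° C. TFA-quenched phosphopeptide was quantified by reverse-phase HPLC.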

[1] = test system: IL-1 production in whole blood; assay: Inhibition of IL-1 production in LPS-stimulated whole blood ("WB"); type: cell-based, human; details: Homo sapiens
Description: (§1) Inhibitors were serially diluted in DMSO from a 20 mM stock. At least 6 serial dilutions were prepared. Then 4× inhibitor stocks were prepared by adding 4 μl of an inhibitor dilution to 1 ml of RPMI1640 medium/10% fetal bovine serum. The 4× inhibitor stocks contained inhibitor at concentrations of 80 μM, 32 μM, 12.8 μM, 5.12 μM, 2.048 μM, 0.819 μM, 0.328 μM, 0.131 μM, 0.052 μM, 0.021 μM etc. The 4× inhibitor stocks were pre-warmed at 37° C. until use.
(§2) Alternatively, whole blood containing an anti-coagulant was used directly in the assay.
(§3) We placed 100 μl of cell suspension or whole blood in each well of a 96-well cell culture plate. Then we added 50 μl of the 4× inhibitor stock to the cells. Finally, we added 50 μl of a lipopolysaccharide (LPS) working stock solution (16 ng/ml in cell culture medium) to give a final concentration of 4 ng/ml LPS in the assay. The total assay volume of the vehicle control was also adjusted to 200 μl by adding 50 μl cell culture medium. The PBMC cells or whole blood were then incubated overnight (for 12–15 hours) at 37° C./5% CO2 in a humidified atmosphere.
(§4) The next day the cells were mixed on a shaker for 3–5 minutes before centrifugation at 500×g for 5 minutes. Cell culture supernatants were harvested and analyzed by ELISA for levels of IL-1b (R & D Systems, Quantikine kits, #DBL50), TNF-α (BioSource, #KHC3012), IL-6 (Endogen, #EH2-IL6) and IL-8 (Endogen, #EH2-IL8) according to the instructions of the manufacturer. The ELISA data were used to generate dose-response curves from which IC50 values were derived.

[2] = test system: TNF production in whole blood; assay: Inhibition of TNF production in LPS-stimulated whole blood ("WB"); type: cell-based, human; details: Homo sapiens
Description: as §1, §2, §3, §4

[3] = test system: IL-6 production in whole blood; assay: Inhibition of IL-6 production in LPS-stimulated whole blood ("WB"); type: cell-based, human; details: Homo sapiens
Description: as §1, §2, §3, §4

[4] = test system: IL-1 production in LPS-stimulated PBMCs; assay: Inhibition of IL-1 production in LPS-stimulated PBMCs ("cell"); type: cell-based, human; details: Homo sapiens, PBMC
Outline: (§5)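 Cytokine levels (IL-1β, TNF-α) in culture supernatants quantified by ELISA, with IC50 taken from dose-response curves. Fresh human PBMCs in RPMI1640 with 10% FBS received serially diluted compound plus LPS (4 ng/ml final) and were cultured 12–15 h at 37 °C, 5% CO2.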

[5] = test system: TNF production in LPS-stimulated PBMCs; assay: Inhibition of TNF production in LPS-stimulated PBMCs ("cell"); type: cell-based, human; details: Homo sapiens, PBMC
Outline: as §5

Chain of activated p38 (Q16539 whole entry): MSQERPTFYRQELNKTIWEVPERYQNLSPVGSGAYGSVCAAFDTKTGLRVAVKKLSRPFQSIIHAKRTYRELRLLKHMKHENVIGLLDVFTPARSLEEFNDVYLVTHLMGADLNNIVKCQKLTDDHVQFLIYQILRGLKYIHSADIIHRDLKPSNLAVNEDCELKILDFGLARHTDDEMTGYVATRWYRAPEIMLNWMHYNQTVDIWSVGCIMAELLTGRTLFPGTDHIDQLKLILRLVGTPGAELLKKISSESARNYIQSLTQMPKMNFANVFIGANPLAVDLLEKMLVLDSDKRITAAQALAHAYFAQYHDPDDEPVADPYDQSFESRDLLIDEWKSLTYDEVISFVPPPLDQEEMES

Row | Structure (SMILES) | IC50 (activated p38) | IC50 [1] | IC50 [2] | IC50 [3] | IC50 [4] | IC50 [5]
1 | NC(=O)N(c1cccc(-c2ccccc2)n1)c1c(Cl)cccc1Cl [Compound 401] | ≤ 100 nM | ≥ 500 nM | ≥ 500 nM | ≥ 500 nM | 100 to 500 nM | 100 to 500 nM
2 | Cc1cccc(-c2cccc(C(C(N)=O)c3c(F)cccc3Cl)n2)c1 (stereo not drawn) [Compound 332] | 100 to 1000 nM | ≥ 500 nM | ≥ 500 nM | ≥ 500 nM | 100 to 500 nM | ≥ 500 nM
3 | NC(=O)C(c1cccc(-c2ccccc2CN2CCNCC2)n1)c1c(Cl)cccc1Cl (stereo not drawn) [Compound 304] | ≥ 1000 nM | ≥ 500 nM | ≥ 500 nM | ≥ 500 nM | ≥ 500 nM | ≥ 500 nM
4 | O=c1ncn2nc(Sc3ccccc3O)ccc2c1-c1c(Cl)cccc1Cl [Compound 33] | 100 to 1000 nM | ≥ 500 nM | ≥ 500 nM | ≥ 500 nM | 100 to 500 nM | 100 to 500 nM
5 | NC(=O)C(c1cccc(-c2cccc3ccccc23)n1)c1c(Cl)cccc1Cl (stereo not drawn) [Compound 362] | ≤ 100 nM | ≥ 500 nM | ≥ 500 nM | ≥ 500 nM | 100 to 500 nM | 100 to 500 nM
6 | NC(=O)C(c1cccc(-c2ccc(F)cc2)n1)c1c(F)cccc1Cl (stereo not drawn) [Compound 329] | 100 to 1000 nM | ≥ 500 nM | ≥ 500 nM | ≥ 500 nM | 100 to 500 nM | ≥ 500 nM
7 | Cc1cccc(-c2cccc(C(C(N)=O)c3c(Cl)cccc3Cl)n2)c1 (stereo not drawn) [Compound 312] | ≤ 100 nM | ≥ 500 nM | ≥ 500 nM | ≥ 500 nM | 100 to 500 nM | ≥ 500 nM
8 | Nc1ccc(Cl)c(C2=C3C=CC(Sc4ccc(F)cc4)=NN3CNC2=O)c1Cl [Compound 125] | ≤ 100 nM | ≥ 500 nM | ≥ 500 nM | ≥ 500 nM | ≤ 100 nM | ≤ 100 nM
9 | N#Cc1ccccc1SC1=NN2CNC(=O)C(c3c(Cl)cccc3Cl)=C2C=C1 [Compound 116] | ≤ 100 nM | ≥ 500 nM | ≥ 500 nM | ≥ 500 nM | ≤ 100 nM | 100 to 500 nM
10 | COc1ccc(C2=C3C=CC(Sc4ccc(F)cc4)=NN3CNC2=O)c(Cl)c1OC [Compound 121] | ≤ 100 nM | ≥ 500 nM | ≥ 500 nM | ≥ 500 nM | ≤ 100 nM | 100 to 500 nM
11 | O=C1NCN2N=C(Sc3ccc(F)cc3Cl)C=CC2=C1c1c(Cl)cccc1Cl [Compound 127] | ≤ 100 nM | 250 to 500 nM | 250 to 500 nM | ≤ 250 nM | ≤ 100 nM | ≤ 100 nM
12 | O=C(O)c1ccccc1Sc1ccc2c(-c3c(Cl)cccc3Cl)c(=O)ncn2n1 [Compound 27] | 100 to 1000 nM | ≥ 500 nM | ≥ 500 nM | ≥ 500 nM | ≥ 500 nM | ≥ 500 nM
13 | Cc1ccccc1-c1cccc(N(C(N)=O)c2c(F)cccc2F)n1 [Compound 403] | ≤ 100 nM | ≥ 500 nM | ≥ 500 nM | 250 to 500 nM | ≤ 100 nM | ≤ 100 nM
14 | COC(=O)c1ccccc1Sc1ccc2c(-c3c(Cl)cccc3Cl)c(=O)ncn2n1 [Compound 26] | ≥ 1000 nM | ≥ 500 nM | ≥ 500 nM | ≥ 500 nM | ≤ 100 nM | 100 to 500 nM
15 | Cc1cc(Cl)ccc1SC1=NN2CNC(=O)C(c3c(Cl)cccc3Cl)=C2C=C1 [Compound 106] | ≤ 100 nM | ≥ 500 nM | 250 to 500 nM | 250 to 500 nM | ≤ 100 nM | ≤ 100 nM
16 | O=C(CCl)Nc1ccc(C2=C3C=CC(Sc4ccc(F)cc4)=NN3CNC2=O)c(Cl)c1 [Compound 141] | ≤ 100 nM | ≥ 500 nM | ≥ 500 nM | ≥ 500 nM | ≤ 100 nM | ≤ 100 nM
